{
  "source": "ChEMBL document CHEMBL3045105",
  "about": "“Synthesis and hypoglycemic activity evaluation of rhein amide derivatives” (Med Chem Res, 2013)",
  "key": {"HepG2 [1]": {"tested_on": "HepG2", "assay": "Hypoglycemic activity in Homo sapiens (human) HepG2 cells assessed as glucose consumption at 10 mg/l after 24 hr by glucose enzymatic assay (reference value: 1.972 +/-0.071 mmol/l)", "format": "functional"}, "HepG2 [2]": {"tested_on": "HepG2", "assay": "Hypoglycemic activity in Homo sapiens (human) HepG2 cells assessed as glucose consumption at 1 mg/l after 24 hr by glucose enzymatic assay (reference value: 1.972 +/-0.071 mmol/l)", "format": "functional"}, "HepG2 [3]": {"tested_on": "HepG2", "assay": "Ratio of glucose consumption to cytotoxic OD490 absorbance for Homo sapiens (human) HepG2 cells (reference value: 3.438 +/-0.139 no unit)"}, "HepG2 [4]": {"tested_on": "HepG2", "assay": "Cytotoxicity against Homo sapiens (human) HepG2 cells assessed as absorbance at 490 nm by MTT assay (reference value: 0.574 +/-0.019 no unit)", "format": "cell-based", "details": "hepg2, 10 mg/L"}},
  "data": [
    {"compound": "CC(=O)Oc1cccc2c1C(=O)c1c(OC(C)=O)cc(C(=O)NC3CCCC3)cc1C2=O", "values": [
      {"measurement": "Activity", "setting": "HepG2 [1]", "value": 2.256, "unit": "mmol/L"},
      {"measurement": "Activity", "setting": "HepG2 [2]", "value": 2.151, "unit": "mmol/L"},
      {"measurement": "Ratio", "setting": "HepG2 [3]", "value": 3.916},
      {"measurement": "OD", "setting": "HepG2 [4]", "value": 0.577}
    ]},
    {"compound": "CC(=O)Oc1cccc2c1C(=O)c1c(OC(C)=O)cc(C(=O)OCc3ccc([N+](=O)[O-])cc3)cc1C2=O", "values": [
      {"measurement": "Activity", "setting": "HepG2 [1]", "value": 2.268, "unit": "mmol/L"},
      {"measurement": "Activity", "setting": "HepG2 [2]", "value": 2.198, "unit": "mmol/L"},
      {"measurement": "Ratio", "setting": "HepG2 [3]", "value": 3.958},
      {"measurement": "OD", "setting": "HepG2 [4]", "value": 0.573}
    ]},
    {"compound": "CC(C)(C)[Si](C)(C)Oc1cccc2c1C(=O)c1c(O[Si](C)(C)C(C)(C)C)cc(C(=O)NC3CCCC3)cc1C2=O", "values": [
      {"measurement": "Activity", "setting": "HepG2 [1]", "value": 2.578, "unit": "mmol/L"},
      {"measurement": "Activity", "setting": "HepG2 [2]", "value": 2.369, "unit": "mmol/L"},
      {"measurement": "Ratio", "setting": "HepG2 [3]", "value": 4.563},
      {"measurement": "OD", "setting": "HepG2 [4]", "value": 0.565}
    ]},
    {"compound": "CC(C)(C)[Si](C)(C)Oc1cccc2c1C(=O)c1c(O[Si](C)(C)C(C)(C)C)cc(C(=O)OCc3ccc([N+](=O)[O-])cc3)cc1C2=O", "values": [
      {"measurement": "Activity", "setting": "HepG2 [1]", "value": 2.529, "unit": "mmol/L"},
      {"measurement": "Activity", "setting": "HepG2 [2]", "value": 2.576, "unit": "mmol/L"},
      {"measurement": "Ratio", "setting": "HepG2 [3]", "value": 4.499},
      {"measurement": "OD", "setting": "HepG2 [4]", "value": 0.563}
    ]},
    {"compound": "CN(C)C(=O)c1cc(O)c2c(c1)C(=O)c1cccc(O)c1C2=O", "values": [
      {"measurement": "Activity", "setting": "HepG2 [1]", "value": 2.485, "unit": "mmol/L"},
      {"measurement": "Activity", "setting": "HepG2 [2]", "value": 2.444, "unit": "mmol/L"},
      {"measurement": "Ratio", "setting": "HepG2 [3]", "value": 4.449},
      {"measurement": "OD", "setting": "HepG2 [4]", "value": 0.56}
    ]},
    {"compound": "O=C1c2cccc(O)c2C(=O)c2c(O)cc(C(=O)N3CCCC3)cc21", "values": [
      {"measurement": "Activity", "setting": "HepG2 [1]", "value": 2.315, "unit": "mmol/L"},
      {"measurement": "Activity", "setting": "HepG2 [2]", "value": 2.379, "unit": "mmol/L"},
      {"measurement": "Ratio", "setting": "HepG2 [3]", "value": 4.116},
      {"measurement": "OD", "setting": "HepG2 [4]", "value": 0.565}
    ]},
    {"compound": "CC(=O)Oc1cccc2c1C(=O)c1c(OC(C)=O)cc(C(=O)N3CCCC3)cc1C2=O", "values": [
      {"measurement": "Activity", "setting": "HepG2 [1]", "value": 2.541, "unit": "mmol/L"},
      {"measurement": "Activity", "setting": "HepG2 [2]", "value": 2.476, "unit": "mmol/L"},
      {"measurement": "Ratio", "setting": "HepG2 [3]", "value": 4.304},
      {"measurement": "OD", "setting": "HepG2 [4]", "value": 0.591}
    ]},
    {"compound": "CN(C)C(=N)NC(=N)N", "note": "[METFORMIN]", "values": [
      {"measurement": "Activity", "setting": "HepG2 [1]", "value": 2.25, "unit": "mmol/L"},
      {"measurement": "Ratio", "setting": "HepG2 [3]", "value": 3.923},
      {"measurement": "OD", "setting": "HepG2 [4]", "value": 0.574}
    ]}
  ]
}
